Laboratory results from patent US20170216225A1, “METHOD FOR ANTICOAGULATION” (priority 2016, published 2017).

Legend:
Assay type in all cases: in vivo
[1] = test system: intrinsic pathway of coagulation system; test: Activated partial thromboplastin time (aPTT) of plasma from IA-treated mice
Description: The 5- to 6-week old male C57BL/6JNar1 mice having body weights around 20 g were purchased from National Laboratory Animal Center, Taipei, Taiwan. Coagulation system in blood is composed of intrinsic and extrinsic pathways. The intrinsic pathway is assayed by activated thromboplastin time (aPTT) and the extrinsic pathway is assayed by prothrombin time (PT). Following intraperitoneal injection of various dose of IA, plasma was obtained at different periods of time and was assayed for aPTT and PT. aPTT and PT were assayed in a Stago ST4 coagulation analyzer (ST art 4, Diagnostica Stago, France). By carbon dioxide anesthesia of mice, blood was obtained by cardiac puncture using 3.2% sodium citrate mixing with blood at a ratio of 1:9. The blood was centrifuged at 2000g/rpm for 10 minutes to get the mouse plasma, which was assayed immediately. aPTT was assayed in 4-fold dilution of aPTT r reagent using kit-provided buffer solution as diluent. In aPTT assay, 0.1 mL of plasma was kept warm for 1 min at 37° C. in a barrette of 4 cuvettes in Stago ST4 coagulation analyzer, then 0.1 mL of 4 fold-diluted aPTT reagent and one steel ball were added and waited for 180 seconds. Finally, 0.1 mL of 25 mM CaCl2 solution was added for aPTT detection. To investigate the anticoagulation effect in the intrinsic pathway of coagulation system in the IA-treated mice, the aPTT was measured at different treatment times. Mouse (n=6) was intraperitoneally injected with 1 mL of 1000 ppm ([…]) IA, blood was drawn 1 hr, 2 hr, 3 hr, and 24 hr after IA injection. Ten mice were injected with vehicle (n=10) and were served as controls. Then, the aPTT of each group was measured. FIG. 2A is a diagram of Table 1-1. To investigate the anticoagulation effect in the intrinsic pathway of coagulation system the IA-treated mice, the aPTT was also measured under different doses of IA. Various doses of IA (1 ppm, 10 ppm, 100 ppm, 1,000 ppm) in 1 mL, were intraperitoneally injected into different groups of mice (n=6), respectively. Plasma was separated 3 hr later. Ten mice were injected with vehicle and were served as controls. The aPTT of each group was measured. FIG. 2B is a diagram of Table 1-2.

[2] = test system: mice; test: Tolerability of intraperitoneal IA in mice
From the text: (§1) In other words, IA is not harmful to the health of mammals even at high doses.

[3] = test system: rats; test: Tolerability of IA in rats; conditions: 1 mL of 30,000 ppm IA
From the text: as §1

[4] = test system: extrinsic pathway of coagulation system; test: Prothrombin time (PT) of plasma from IA-treated mice
Description: The 5- to 6-week old male C57BL/6JNar1 mice having body weights around 20 g were purchased from National Laboratory Animal Center, Taipei, Taiwan.
Coagulation system in blood is composed of intrinsic and extrinsic pathways. The intrinsic pathway is assayed by activated thromboplastin time (aPTT) and the extrinsic pathway is assayed by prothrombin time (PT). Following intraperitoneal injection of various dose of IA, plasma was obtained at different periods of time and was assayed for aPTT and PT. aPTT and PT were assayed in a Stago ST4 coagulation analyzer (ST art 4, Diagnostica Stago, France).
By carbon dioxide anesthesia of mice, blood was obtained by cardiac puncture using 3.2% sodium citrate mixing with blood at a ratio of 1:9. The blood was centrifuged at 2000g/rpm for 10 minutes to get the mouse plasma, which was assayed immediately.
PT was assayed in 4-fold dilution of PT reagent, composed of four parts including one part of PT reagent, one part of 25 mM CaCl solution, and two parts of sterile water. In PT assay, 0.1 mL of plasma was put into each of 4 barrette cuvette, each of which had one steel ball, and was kept at 37° C. for 1 min in Stago ST4 coagulation analyzer. Then, 0.2 mL of the diluted PT reagent was added for PT detection.
Moreover, to investigate the anticoagulation effect in the extrinsic pathway of coagulation system in the IA-treated mice, the PT was measured at different treatment times. Different groups of mice (n=6) were respectively intraperitoneally injected with 1 mL of 1000 ppm ([…]) IA, blood was drawn 1 hr, 2 hr, 3 hr, and 24 hr after IA injection. Ten mice were injected with vehicle (n=10) and were served as controls. Then, the PT of each group was measured. FIG. 3A is a diagram of Table 2-1.
To investigate the anticoagulation effect in the extrinsic pathway of coagulation system in the IA-treated mice, the PT was also measured under different doses of IA. Various doses of IA (1 ppm, 10 ppm, 100 ppm, 1,000 ppm) in 1 mL, were intraperitoneally injected into different groups of mice (n=6), respectively. Plasma was separated 3 hr later. Ten mice were injected with vehicle and were served as controls. The PT of each group was measured. FIG. 3B is a diagram of Table 2-2.

[5] = 1 mL i.p., 3 hr after injection
[6] = 1 mL of 1000 ppm (0.05 mL/kg) IA i.p., treatment time 1 hr
[7] = 1 mL of 1000 ppm (0.05 mL/kg) IA i.p., treatment time 2 hr
[8] = 1 mL of 1000 ppm (0.05 mL/kg) IA i.p., treatment time 3 hr
[9] = 1 mL of 1000 ppm (0.05 mL/kg) IA i.p., treatment time 24 hr
[10] = injected dose 1 ppm in 1 mL i.p., 3 hr after injection
[11] = injected dose 10 ppm in 1 mL i.p., 3 hr after injection
[12] = injected dose 100 ppm in 1 mL i.p., 3 hr after injection
[13] = injected dose 1000 ppm in 1 mL i.p., 3 hr after injection

## CC(C)CCN [IA, 3-methyl-1-butanamine]
[1]; [5]
  Lowest dose with anticoagulation effect in the intrinsic pathway (aPTT prolonged, statistical meaning): 1 ppm
[1]; [6]
  Mean of aPTT: 30.8 s
[1]; [7]
  Mean of aPTT: 32.0 s
[1]; [8]
  Mean of aPTT: 33.7 s
[1]; [9]
  Mean of aPTT: 34.8 s
[1]; 1 mL of 1000 ppm IA i.p.
  Treatment time after which aPTT prolongation has statistical meaning: 1 h
[1]; [10]
  Mean of aPTT: 33.0 s
[1]; [11]
  Mean of aPTT: 33.0 s
[1]; [12]
  Mean of aPTT: 33.4 s
[1]; [13]
  Mean of aPTT: 33.7 s
[2]; BALB/C mice (20 g), 1 mL of 20,000 ppm (0.1 mL/kg) i.p.
  Tolerance of intraperitoneal injection: could tolerate
[2]; mice, 1 mL of 1,000 ppm (0.05 mL/kg) IA
  Physiological state after IA: normal physiological state can be maintained
[3]
  Physiological state after IA: normal physiological state can also be maintained
[4]; [5]
  Dose at which PT was obviously prolonged (statistical meaning): 1000 ppm
[4]; [6]
  Mean of PT: 11.6 s
[4]; [7]
  Mean of PT: 12.2 s
[4]; [8]
  Mean of PT: 12.6 s
[4]; [9]
  Mean of PT: 13.2 s
[4]; 1 mL of 1000 ppm IA i.p.
  Treatment time after which PT prolongation has statistical meaning: 2 h
[4]; [10]
  Mean of PT: 11.2 s
[4]; [11]
  Mean of PT: 11.4 s
[4]; [12]
  Mean of PT: 11.5 s
[4]; [13]
  Mean of PT: 12.6 s
